The record followed here is patent US9408850B2, “Substituted indazole derivatives active as kinase inhibitors” (NERVIANO MEDICAL SCIENCES S.R.L., priority 2011, dated 2016).

For assay [1], the target named is FLT3 cytoplasmic domain (GST fused protein) (Homo sapiens (Human), UniProt P36888). Briefly: Biochemical assay for inhibitors of FLT3 kinase activity. To be noted: 2 nM pre activated enzyme, 254 microM ATP, 60 minutes at r.t. As for the experimental part: FLT3 cytoplasmic domain (aa 564-993end of the 993 aminoacid long full length sequence, accession number P36888 of UniProtKB/Swiss-Prot. database) was amplified by PCR starting from a testis cDNA library and then cloned into pVL vector for expression in insect cells through the baculovirus system. The GST-FLT3 cytoplasmic domain has been expressed in Sf21 cells infected for 72 hours at 27° C. The recombinant protein has been purified by affinity on GSH-sepharose and eluted with glutathione. A further purification step has been performed on heparine sepharose. […] General Principle-A specific peptidic substrate was trans-phosphorylated by the kinase in the presence of ATP traced with 33Pγ-ATP. At the end of the phosphorylation reaction, the not reacted ATP, cold and radioactive, was captured by an excess of dowex ion exchange resin that eventually settled by gravity to the bottom of the reaction plate. The supernatant was subsequently withdrawn and transferred into a counting plate that was then evaluated by β-counting. • ii. Dowex resin preparation-500 g of wet resin (SIGMA, custom prepared resin DOWEX 1×8 200-400 mesh, 2.5 Kg) were weighed out and diluted to 2 L in 150 mM sodium formate, pH 3.00. The resin was allowed to settle down overnight and then the supernatant was discarded. After three washes as above over a couple of days, the resin was allowed to settle and two volumes (with respect to the resin volume) were added of 150 mM sodium formate buffer. Biochemical Assay for Inhibitors of FLT3 Kinase Activity • i. Enzyme-The assay was performed using FLT3 cytoplasmic domain product and purified in house as GST fused protein. […] NO: 1). The peptide was purchased from American Peptide Company (Sunnyvale, Calif.). Biochemical Assay for Inhibitors of KIT Kinase Activity • i. Enzyme-The assay has been performed using KIT cytoplasmic domain product and purified in house as GST fused protein. […] NO: 2). The peptide was purchased from American Peptide Company (Sunnyvale, Calif.). Compound Testing • i. […] An automated station for serial dilutions (Biomek FX, Beckman) was used for producing 1:3 dilutions in 100% DMSO, from line A1 to A10, and for all the compounds in the column. […] The following dispensation into the plates plus 3 cycles of mixing, done by the robot itself, started the kinase reaction. At this point, the correct concentrations were restored for all the reagents. The robot incubated the plates for 60 minutes at r.t., and then stopped the reaction by pipetting 60 microL of dowex resin suspension into the reaction mix. In order to avoid tip clogging, wide bore tips were used to dispense the resin suspension. Three cycles of mixing were done immediately after the addition of the resin. Another mixing cycle was performed after all the plates were stopped, this time using normal tips: the plates were then allowed to rest for about one hour in order to allow resin sedimentation. […] Data Fitting-Data were analyzed by an internally customized version of the SW package “Assay Explorer” that provided sigmoidal fitting of the ten-dilutions curves for IC50 determination in the secondary assays/hit confirmation routines. Cell-Based Assays for Inhibitors of FLT3 Kinase Activity In vitro Cell Proliferation Assay for Inhibitors of FLT3 Kinase Activity
Chain of FLT3 cytoplasmic domain (GST fused protein) (P36888 564-993): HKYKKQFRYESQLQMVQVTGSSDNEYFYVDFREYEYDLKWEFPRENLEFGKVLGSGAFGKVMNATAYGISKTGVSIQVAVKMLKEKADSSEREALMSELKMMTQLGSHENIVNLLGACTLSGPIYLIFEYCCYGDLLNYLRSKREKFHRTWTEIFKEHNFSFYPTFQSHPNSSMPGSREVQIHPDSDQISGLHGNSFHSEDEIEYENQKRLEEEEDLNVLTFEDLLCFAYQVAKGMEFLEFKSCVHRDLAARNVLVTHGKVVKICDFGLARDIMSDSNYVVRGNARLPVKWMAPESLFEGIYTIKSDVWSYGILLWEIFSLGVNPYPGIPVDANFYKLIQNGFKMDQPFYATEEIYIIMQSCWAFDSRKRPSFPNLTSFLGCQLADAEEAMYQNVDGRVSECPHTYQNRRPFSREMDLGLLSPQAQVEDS

Assay [2] addresses KIT cytoplasmic domain (GST fused protein) (Homo sapiens (Human), UniProt P10721). The assay can be described thus: Biochemical assay for inhibitors of KIT kinase activity. To be noted: 4 nM pre activated enzyme, 4.4 microM ATP, 60 minutes at r.t. As for the experimental part:
KIT cytoplasmic domain (aa 544-976end of the 976 aminoacid long full length sequence, accession number P10721 of UniProtKB/Swiss-Prot database) was cloned into pVL vector for expression in insect cells through the baculovirus system. The GST-KIT cytoplasmic domain has been expressed in Sf21 cells infected for 66 hrs at 27° C. The recombinant protein has been purified by affinity on GSH-sepharose and eluted with glutathione. […] General Principle-A specific peptidic substrate was trans-phosphorylated by the kinase in the presence of ATP traced with 33Pγ-ATP. At the end of the phosphorylation reaction, the not reacted ATP, cold and radioactive, was captured by an excess of dowex ion exchange resin that eventually settled by gravity to the bottom of the reaction plate. The supernatant was subsequently withdrawn and transferred into a counting plate that was then evaluated by β-counting. • ii. Dowex resin preparation-500 g of wet resin (SIGMA, custom prepared resin DOWEX 1×8 200-400 mesh, 2.5 Kg) were weighed out and diluted to 2 L in 150 mM sodium formate, pH 3.00. The resin was allowed to settle down overnight and then the supernatant was discarded. After three washes as above over a couple of days, the resin was allowed to settle and two volumes (with respect to the resin volume) were added of 150 mM sodium formate buffer. Biochemical Assay for Inhibitors of FLT3 Kinase Activity • i. Enzyme-The assay was performed using FLT3 cytoplasmic domain product and purified in house as GST fused protein. […] The peptide was purchased from American Peptide Company (Sunnyvale, Calif.). Biochemical Assay for Inhibitors of KIT Kinase Activity • i. Enzyme-The assay has been performed using KIT cytoplasmic domain product and purified in house as GST fused protein. […] NO: 2). The peptide was purchased from American Peptide Company (Sunnyvale, Calif.). Compound Testing • i. […] An automated station for serial dilutions (Biomek FX, Beckman) was used for producing 1:3 dilutions in 100% DMSO, from line A1 to A10, and for all the compounds in the column. […] The following dispensation into the plates plus 3 cycles of mixing, done by the robot itself, started the kinase reaction. At this point, the correct concentrations were restored for all the reagents. The robot incubated the plates for 60 minutes at r.t., and then stopped the reaction by pipetting 60 microL of dowex resin suspension into the reaction mix. In order to avoid tip clogging, wide bore tips were used to dispense the resin suspension. Three cycles of mixing were done immediately after the addition of the resin. Another mixing cycle was performed after all the plates were stopped, this time using normal tips: the plates were then allowed to rest for about one hour in order to allow resin sedimentation. […] Data Fitting-Data were analyzed by an internally customized version of the SW package “Assay Explorer” that provided sigmoidal fitting of the ten-dilutions curves for IC50 determination in the secondary assays/hit confirmation routines. Cell-Based Assays for Inhibitors of FLT3 Kinase Activity In vitro Cell Proliferation Assay for Inhibitors of FLT3 Kinase Activity

Assay [3] has as its system MOLM-13 cells, bearing a FLT3-ITD mutation. The assay can be described thus: In vitro cell proliferation assay (CellTiter-Glo), MOLM-13. In kind it is cell-based. Particulars: Homo sapiens, MOLM-13, 72 h. As for the experimental part: (§1) The human acute leukemia MOLM-13 AND MV-4-11 cells, bearing a FLT3-ITD mutation, were seeded (5000 cells/well) in white 384 well-plates in complete medium (RPMI 1640 plus 10% Fetal bovine serum) and treated with compounds dissolved in 0.1% DMSO, 24 h after seeding. The cells were incubated at 37° C. and 5% CO2 and after 72 h the plates were processed using CellTiter-Glo assay (Promega) following the manufacturer's instruction.
(§2) CellTiter-Glo is a homogenous method based on the quantification of the ATP present, an indicator of metabolitically active cells. ATP was quantified using a system based on luciferase and D-luciferin resultant into light generation. The luminescent signal was proportional to the number of cells present in culture.
(§3) Briefly, 25 microL/well reagent solution were added to each well and, after 5 minutes shaking, microplates were read by Envision (PerkinElmer) luminometer. Inhibitory activity was evaluated comparing treated versus control data using Symyx Assay Explorer (Symyx Technologies Inc.) program. IC50 was calculated using sigmoidal interpolation curve.

Assay [4] relates to MV-4-11 cells, bearing a FLT3-ITD mutation. Briefly: In vitro cell proliferation assay (CellTiter-Glo), MV-4-11. The format is cell-based. To be noted: Homo sapiens, MV4-11, MV-4-11, 72 h. As for the experimental part:
as §1, §2, §3

Structures can show the parent of a compound that is named as a salt.

Chain of KIT cytoplasmic domain (GST fused protein) (P10721 544-976): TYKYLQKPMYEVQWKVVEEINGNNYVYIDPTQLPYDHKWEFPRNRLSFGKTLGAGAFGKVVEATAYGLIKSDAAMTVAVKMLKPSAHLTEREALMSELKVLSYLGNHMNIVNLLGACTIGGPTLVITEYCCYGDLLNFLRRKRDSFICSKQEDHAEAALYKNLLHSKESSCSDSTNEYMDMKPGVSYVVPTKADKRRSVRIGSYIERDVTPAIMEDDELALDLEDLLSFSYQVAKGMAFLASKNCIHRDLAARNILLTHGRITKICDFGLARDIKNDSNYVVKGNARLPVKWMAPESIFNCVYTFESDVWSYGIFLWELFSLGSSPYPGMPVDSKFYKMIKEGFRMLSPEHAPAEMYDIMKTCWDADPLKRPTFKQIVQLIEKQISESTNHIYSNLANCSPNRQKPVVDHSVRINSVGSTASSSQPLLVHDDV

In the case of `CN1CCN(c2ccc(C(=O)Nc3n[nH]c4cc(OCCOCc5ccncc5)ccc34)cc2)CC1` [Cpd. 35, 4-(4-Methyl-piperazin-1-yl)-N-{6-[2-(pyridin-4-ylmethoxy)-ethoxy]-1H-indazol-3-yl}-benzamide], the concentration for half-maximal inhibition (IC50) was 1180 nM in assay [1], 2370 nM in assay [2], less than 50 nM in assay [3] and less than 50 nM in assay [4].

`O=C(Nc1n[nH]c2cc(OCCOCc3ccccc3)ccc12)c1ccc(N2CCOCC2)cc1` [Cpd. 24, N-[6-(2-Benzyloxy-ethoxy)-1H-indazol-3-yl]-4-morpholin-4-yl-benzamide]: the half-inhibitory concentration (IC50) was 162 nM in assay [1], 260 nM in assay [2], less than 50 nM in assay [3] and less than 50 nM in assay [4].

Regarding `O=C(Nc1n[nH]c2cc(OCCOCc3ccccc3)ccc12)c1ccc(N2CCNCC2)cc1` [Cpd. 20, N-[6-(2-Benzyloxy-ethoxy)-1H-indazol-3-yl]-4-piperazin-1-yl-benzamide], the 50% inhibitory concentration (IC50) is less than 50 nM in assay [1], 52 nM in assay [2], less than 50 nM in assay [3] and less than 50 nM in assay [4].

On to `CN(C)Cc1ccc(C(=O)Nc2n[nH]c3cc(OCCOCc4ccccc4)ccc23)cc1` [Cpd. 21, N-[6-(2-Benzyloxy-ethoxy)-1H-indazol-3-yl]-4-dimethylaminomethyl-benzamide], for which the IC50 in assay [1] is 104 nM; in assay [2], 134 nM; in assay [4], less than 50 nM.

Take `CN(c1ccc(C(=O)Nc2n[nH]c3cc(OCCOCc4ccccc4)ccc23)cc1)C1CC[N+](C)([O-])CC1` (stereo not drawn) [Cpd. 41, N-[6-(2-Benzyloxy-ethoxy)-1H-indazol-3-yl]-4-[methyl-(1-methyl-1-oxy-piperidin-4-yl)-amino]-benzamide]: the IC50 in assay [1] was 52 nM; in assay [2] it was 180 nM; in assay [3], less than 50 nM; in assay [4], less than 50 nM.

On to `CN1CCN(c2ccc(C(=O)Nc3n[nH]c4cc(OCCOCc5ccccc5)ccc34)cc2)CC1` [Cpd. 11, N-[6-(2-Benzyloxy-ethoxy)-1H-indazol-3-yl]-4-(4-methyl-piperazin-1-yl)-benzamide], for which the 50% inhibitory concentration (IC50) in assay [1] was less than 50 nM; in assay [2], 113 nM.

As for `C[N+]1([O-])CCN(c2ccc(C(=O)Nc3n[nH]c4cc(OCCOCc5ccccc5)ccc34)cc2)CC1` [Cpd. 14, N-[6-(2-Benzyloxy-ethoxy)-1H-indazol-3-yl]-4-(4-methyl-4-oxy-piperazin-1-yl)-benzamide], the IC50 in assay [1] was less than 50 nM; in assay [2], 118 nM.

`CN1CCN(c2ccc(C(=O)Nc3n[nH]c4cc(OCCOCc5ccc(C(F)(F)F)cc5)ccc34)cc2)CC1` [Cpd. 33, 4-(4-Methyl-piperazin-1-yl)-N-{6-[2-(4-trifluoromethyl-benzyloxy)-ethoxy]-1H-indazol-3-yl}-benzamide]: the IC50 in assay [1] and in assay [2] was less than 50 nM throughout.

Regarding `COc1ccc(COCCOc2ccc3c(NC(=O)c4ccc(N5CCN(C)CC5)cc4)n[nH]c3c2)cc1` [Cpd. 40, N-{6-[2-(4-Methoxy-benzyloxy)-ethoxy]-1H-indazol-3-yl}-4-(4-methyl-piperazin-1-yl)-benzamide], the values for the concentration for half-maximal inhibition (IC50) in assay [1] and in assay [2] were less than 50 nM and 88 nM, respectively.

Consider `CN1CCN(c2ccc(C(=O)Nc3n[nH]c4cc(OCCOCc5ccc(F)cc5)ccc34)cc2)CC1` [Cpd. 32, N-{6-[2-(4-Fluoro-benzyloxy)-ethoxy]-1H-indazol-3-yl}-4-(4-methyl-piperazin-1-yl)-benzamide], for which the IC50 in assay [1] and in assay [2] was less than 50 nM in each case.

`CN1CCN(c2ccc(C(=O)Nc3n[nH]c4cc(Oc5ccccc5)ccc34)cc2)CC1` [Cpd. 2, 4-(4-Methyl-piperazin-1-yl)-N-(6-phenoxy-1H-indazol-3-yl)-benzamide]: the 50% inhibitory concentration (IC50) is 1130 nM in assay [1] and 172 nM in assay [2].

Take `C[N+]1([O-])CCN(c2ccc(C(=O)Nc3n[nH]c4cc(OCCOCc5ccc(C(F)(F)F)cc5)ccc34)cc2)CC1` [Cpd. 42, 4-(4-Methyl-4-oxy-piperazin-1-yl)-N-{6-[2-(4-trifluoromethyl-benzyloxy)-ethoxy]-1H-indazol-3-yl}-benzamide hydrochloride]: the IC50 in assay [1] is less than 50 nM; in assay [2], 55 nM.

As for `CN1CCN(c2ccc(C(=O)Nc3n[nH]c4cc(OC/C=C/c5ccccc5)ccc34)cc2)CC1` [Cpd. 39, 4-(4-Methyl-piperazin-1-yl)-N-[6-((E)-3-phenyl-allyloxy)-1H-indazol-3-yl]-benzamide], the IC50 in assay [1] worked out at 62 nM; in assay [2], 528 nM.

As to `CN1CCN(c2ccc(C(=O)Nc3n[nH]c4cc(OCc5ccccc5)ccc34)cc2)CC1` [Cpd. 1, N-(6-Benzyloxy-1H-indazol-3-yl)-4-(4-methyl-piperazin-1-yl)-benzamide], the results for the IC50 in assay [1] and in assay [2] were 428 nM and 2800 nM, respectively.

As to `CN1CCN(c2ccc(C(=O)Nc3n[nH]c4cc(Oc5ccc(OCc6ccccc6)cc5)ccc34)cc2)CC1` [Cpd. 4, N-[6-(4-Benzyloxy-phenoxy)-1H-indazol-3-yl]-4-(4-methyl-piperazin-1-yl)-benzamide], the IC50 in assay [1] was 974 nM; in assay [2] it was greater than 10000 nM.
